Experimental findings from PMC9290008 (ACS Medicinal Chemistry Letters, 2022) are described below.

This series is described as follows: GSH incorporation experiments. The series is classed as in vitro ADME, human. The note with it: 10 μM compound, GSH 5 mM, 37 °C, 30 min; for %GSH − HLM: absence of HLM; for % GSH + HLM: presence of HLM.

Take `Clc1ncc(Cl)c(-c2c[nH]c3ncncc23)n1` [Compound 21]: the “%GSH − HLM” value was 0% and the “% GSH + HLM” value was 16.1%.
In the case of `Clc1ncc(Cl)c(-n2ccc3ncncc32)n1` [Compound 20], the “%GSH − HLM” value was found to be 2.5% and the “% GSH + HLM” value came out at 99.9%.
The like results for `Clc1nccc(-n2ccc3ncccc32)n1` [Compound 8] were, in that order, 0.1% and 53.5%.
Take `N#Cc1ccc(Cl)nc1-n1ccc2ncncc21` [Compound 23]: the “%GSH − HLM” value was 2.8% and the “% GSH + HLM” value is recorded as 49.9%.
Turning to `Clc1ncc(Cl)c(-n2ccc3ncccc32)n1` [Compound 1], the “% GSH + HLM” value is recorded as 96.0%.
